The text below walks through data of US9334267B2, “RAF inhibitor compounds” (Deciphera Pharmaceuticals, LLC, priority 2012, dated 2016).

Common to all, as to assay type: cell-based
The test system of one experiment is HT-29 cells. Put plainly: HT-29 cell proliferation assay (resazurin). Conditions: Homo sapiens, V600E mutation, read-out: Cell Proliferation Inhibition IC50, nM HT-29. How it is done: (§1) HT-29 cells (catalog #HTB-38) are obtained from the American Type Culture Collection (ATCC, Manassas, Va.). Briefly, cells are grown in McCoy's 5A supplemented with 10% characterized fetal bovine serum (Invitrogen, Carlsbad, Calif.), and 1% Penicillin/Streptomycin/L-Glutamine at 37 degrees Celsius, 5% CO2, and 95% humidity. Cells are allowed to expand until reaching 75-90% confluency at which point they are subcultured or harvested for assay use. A serial dilution of test compound is dispensed into a 384-well black clear bottom plate in triplicate. One thousand two-hundred fifty cells are added per well in 50 μL complete growth medium in the 384-well plate. Plates are incubated for 67 hours at 37 degrees Celsius, 5% CO2, and 95% humidity. At the end of the incubation period, 10 μL of a 440 μM solution of resazurin (Sigma, St. Louis, Mo.) in PBS is added to each well of the plate and plates are incubated for an additional 5 hours at 37 degrees Celsius, 5% CO2, and 95% humidity. Plates are read on a Synergy2 reader (Biotek, Winooski, Vt.) using an excitation of 540 nm and an emission of 600 nm. Data is analyzed using Prism software (Graphpad, San Diego, Calif.) to calculate IC50 values.
(§2) The A375, HT-29, and Colo-205 cells (ATCC) harbor a V600E mutation.

For another experiment, the system named is Sk-Mel-2 cells. Put plainly: SK-Mel-2 cell proliferation assay (resazurin). Particulars: Homo sapiens, N-Ras mutation B-Raf wild type, read-out: Cell Proliferation Inhibition IC50, nM SK-Mel-2.
The next experiment relates to Colo205 cells. Briefly: Colo-205 cell proliferation assay (resazurin). Particulars: Homo sapiens; Colo-205 cells, V600E mutation; read-out: Cell Proliferation Inhibition IC50, nM Colo-205. The protocol: as §1, with “Colo205” for “HT-29”, “#HB-8307)” for “#HTB-38)”, “RPMI 1640” for “McCoy's 5A”, “Calif.), 1 mM sodium pyruvate,” for “Calif.),”, “30-60%” for “75-90%”
as §2
On the technique in general: Resazurin is reduced to fluorescent resorufin, in cell work by metabolically active cells.

Bounds are passed on as bounds.

`CCNc1ncc2cc(-c3cc(NC(=O)NCCC(C)(C)F)c(F)cc3C)c(C)nc2n1` [Example 26, 1-(5-(2-(Ethylamino)-7-methylpyrido[2,3-d]pyrimidin-6-yl)-2-fluoro-4-methylphenyl)-3-(3-fluoro-3-methylbutyl)urea]: the IC50 was less than 100 nM with HT-29 cells, 100 to 1000 nM in the experiment with Sk-Mel-2 cells and 100 to 1000 nM with Colo205 cells.

On to `CNc1ncc2cc(-c3cc(NC(=O)NC[C@@H](O)C(C)(C)C)c(F)cc3C)cnc2n1` [Example 19, 1-[2-fluoro-4-methyl-5-(2-methylaminopyrido[2,3-d]pyrimidin-6-yl)phenyl]-3-[(2S)-2-hydroxy-3,3-dimethyl-butyl]urea], for which the IC50 with HT-29 cells, with Sk-Mel-2 cells and in the experiment on Colo205 cells was 100 to 1000 nM in each case.

With `CC(=O)Nc1ncc2cc(-c3cc(NC(=O)NCCC(C)(C)C)c(F)cc3C)c(C)nc2n1` [Example 33, N-(6-(5-(3-(3,3-Dimethylbutyl)ureido)-4-fluoro-2-methylphenyl)-7-methylpyrido[2,3-d]pyrimidin-2-yl)acetamide], the IC50 in the experiment with HT-29 cells is less than 100 nM; with Sk-Mel-2 cells, 100 to 1000 nM; in the experiment on Colo205 cells, less than 100 nM.

On to `COCCNc1ncc2cc(-c3cc(NC(=O)NC4CC(C)(C)C4)c(F)cc3C)c(C)nc2n1` [Example 31, 1-(3,3-Dimethylcyclobutyl)-3-(2-fluoro-5-(2-((2-methoxyethyl)amino)-7-methylpyrido[2,3-d]pyrimidin-6-yl)-4-methylphenyl)urea], for which the IC50 is less than 100 nM with HT-29 cells, 100 to 1000 nM with Sk-Mel-2 cells and less than 100 nM with Colo205 cells.

In the case of `CNc1ncc2cc(-c3cc(NC(=O)NC[C@H](O)C(C)(C)C)c(F)cc3C)cnc2n1` [Example 18, 1-[2-Fluoro-4-methyl-5-(2-methylaminopyrido[2,3-d]pyrimidin-6-yl)phenyl]-3-[(2R)-2-hydroxy-3,3-dimethyl-butyl]urea], the IC50 was less than 100 nM in the experiment on HT-29 cells, 100 to 1000 nM with Sk-Mel-2 cells and less than 100 nM in the experiment with Colo205 cells.

Turning to `Cc1cc(F)c(NC(=O)NCCC(C)(C)C)cc1-c1cc2cnc(NCCN(C)C)nc2nc1C` [Example 17, 1-[5-[2-(2-Dimethylaminoethylamino)-7-methyl-pyrido[2,3-d]pyrimidin-6-yl]-2-fluoro-4-methyl-phenyl]-3-(3,3-dimethylbutyl)urea], the IC50 in the experiment on HT-29 cells was less than 100 nM; in the experiment on Sk-Mel-2 cells, 100 to 1000 nM; in the experiment with Colo205 cells, less than 100 nM.

As to `CNc1ncc2cc(-c3cc(NC(=O)NCC(O)C(C)(C)C)c(F)cc3C)c(C)nc2n1` (stereo not drawn) [Example 15, 1-[2-Fluoro-4-methyl-5-(7-methyl-2-methylamino-pyrido[2,3-d]pyrimidin-6-yl)phenyl]-3-(2-hydroxy-3,3-dimethyl-butyl)urea], the IC50 with HT-29 cells was less than 100 nM; in the experiment with Sk-Mel-2 cells it was 100 to 1000 nM; in the experiment with Colo205 cells, less than 100 nM.

With `CNc1ncc2cc(-c3cc(NC(=O)NCCC(C)(C)C)c(F)cc3Br)c(C)nc2n1` [Example 32, 1-(4-Bromo-2-fluoro-5-(7-methyl-2-(methylamino)pyrido[2,3-d]pyrimidin-6-yl)phenyl)-3-(3,3-dimethylbutyl)urea], the figures for the IC50 in the experiment with HT-29 cells, with Sk-Mel-2 cells and in the experiment on Colo205 cells were less than 100 nM, 100 to 1000 nM and less than 100 nM, respectively.

Consider `CNc1ncc2cc(-c3cc(NC(=O)NCCC(C)(C)C(F)(F)F)c(F)cc3C)c(C)nc2n1` [Example 27, 1-(2-Fluoro-4-methyl-5-(7-methyl-2-(methylamino)pyrido[2,3-d]pyrimidin-6-yl)phenyl)-3-(4,4,4-trifluoro-3,3-dimethylbutyl)urea], for which the IC50 is less than 100 nM in the experiment on HT-29 cells, 100 to 1000 nM in the experiment with Sk-Mel-2 cells and less than 100 nM in the experiment on Colo205 cells.

`Cc1cc(F)c(NC(=O)NCCC(C)(C)C)cc1-c1cc2cnc(NCc3cn(C)cn3)nc2nc1C` [Example 22, 1-(3,3-Dimethylbutyl)-3-(2-fluoro-4-methyl-5-(7-methyl-2-(((1-methyl-1H-imidazol-4-yl)methyl)amino)pyrido[2,3-d]pyrimidin-6-yl)phenyl)urea]: the IC50 with HT-29 cells was less than 100 nM; in the experiment on Sk-Mel-2 cells, 100 to 1000 nM; in the experiment on Colo205 cells it was less than 100 nM.

Take `Cc1cc(F)c(NC(=O)NCCC(C)(C)F)cc1-c1cc2cnc(NC3COC3)nc2nc1C` [Example 25, 1-(3-Fluoro-3-methylbutyl)-3-(2-fluoro-4-methyl-5-(7-methyl-2-(oxetan-3-ylamino)pyrido[2,3-d]pyrimidin-6-yl)phenyl)urea]: the figures for the IC50 in the experiment with HT-29 cells, in the experiment with Sk-Mel-2 cells and with Colo205 cells were less than 100 nM, 100 to 1000 nM and less than 100 nM, respectively.

Take `CNc1ncc2cc(-c3cc(NC(=O)NC4CC(C)(C)C4)c(F)cc3F)c(C)nc2n1` [Example 7, 1-(2,4-Difluoro-5-(7-methyl-2-(methylamino)pyrido[2,3-d]pyrimidin-6-yl)phenyl)-3-(3,3-dimethylcyclobutyl)urea]: the IC50 with HT-29 cells, in the experiment with Sk-Mel-2 cells and in the experiment with Colo205 cells was less than 100 nM in each case.

In the case of `Cc1cc(F)c(NC(=O)NCCC(C)(C)F)cc1-c1cc2cnc(N)nc2nc1C` [Example 28, 1-(5-(2-Amino-7-methylpyrido[2,3-d]pyrimidin-6-yl)-2-fluoro-4-methylphenyl)-3-(3-fluoro-3-methylbutyl)urea], the IC50 in the experiment on HT-29 cells was 100 to 1000 nM; with Sk-Mel-2 cells, 1000 to 10000 nM; in the experiment on Colo205 cells, 100 to 1000 nM.

For `CNc1ncc2cc(-c3cc(NC(=O)NC4CC(C)(C)C4)c(F)cc3C)c(C)nc2n1` [Example 6, 1-(3,3-Dimethylcyclobutyl)-3-(2-fluoro-4-methyl-5-(7-methyl-2-(methylamino)pyrido[2,3-d]pyrimidin-6-yl)phenyl)urea], the IC50 in the experiment on HT-29 cells, in the experiment on Sk-Mel-2 cells and in the experiment on Colo205 cells was less than 100 nM throughout.

For `Cc1cc(F)c(NC(=O)NCCC(C)(C)F)cc1-c1cc2cnc(NCCO)nc2nc1C` [Example 29, 1-(3-Fluoro-3-methylbutyl)-3-(2-fluoro-5-(2-((2-hydroxyethyl)amino)-7-methylpyrido[2,3-d]pyrimidin-6-yl)-4-methylphenyl)urea], the IC50 is 100 to 1000 nM with HT-29 cells, 1000 to 10000 nM in the experiment with Sk-Mel-2 cells and 100 to 1000 nM in the experiment on Colo205 cells.

For `COCCNc1ncc2cc(-c3cc(NC(=O)NCCC(C)(C)C)c(F)cc3C)c(C)nc2n1` [Example 5, 1-(3,3-Dimethylbutyl)-3-(2-fluoro-5-(2-((2-methoxyethyl)amino)-7-methylpyrido[2,3-d]pyrimidin-6-yl)-4-methylphenyl)urea], the IC50 with HT-29 cells was less than 100 nM; with Sk-Mel-2 cells it was 100 to 1000 nM; with Colo205 cells it was less than 100 nM.
